Among the data in patent EP4737450A1 (Longwood Pharmaceuticals (Hangzhou) Co., Ltd, priority 2023, dated 2025) are IC50 values, retold here.

Where two headings read alike, the source gives them in different places.

This assay has as its target T1, plasma kallikrein (PKa) (Homo sapiens, UniProt P03952).
T1 construct: purchased R & D 2497-SE
Put plainly: Inhibitory activity against plasma kallikrein in vitro (fluorescence intensity enzyme assay, Pro-Phe-Arg-AMC substrate). It counts as biochemical. As to conditions: Pro-Phe-Arg-AMC substrate. As to the method:
Test of the inhibitory activities of the compounds of the present invention against plasma kallikrein (PKa), KLK1 and FXIa in vitro.
The final concentrations of enzyme protein and Pro-Phe-Arg-AMC in the reaction mixture were 10 nM and 60 µM, respectively. The starting concentration of the positive reference substance Avoralstat was 100 nM, 3-fold dilution, 10 + 0 dose. 0.05 µL of compound in 100% DMSO was delivered to a 384-well plate by an acoustic liquid delivery technique (Echo665; nanoliter range). Compound duplex test. […] IC50 values and nonlinear regression curve fitting were obtained using GraphPad Prism software.

Where [1] appears, read: PKa IC50, plasma kallikrein enzyme assay.
Setting [2] is: plasma kallikrein enzyme assay, read-out: PKa IC50.

As usually defined, the IC50 is the concentration at which inhibition is half-maximal.

T1 sequence (P03952 391-638 limits assumed): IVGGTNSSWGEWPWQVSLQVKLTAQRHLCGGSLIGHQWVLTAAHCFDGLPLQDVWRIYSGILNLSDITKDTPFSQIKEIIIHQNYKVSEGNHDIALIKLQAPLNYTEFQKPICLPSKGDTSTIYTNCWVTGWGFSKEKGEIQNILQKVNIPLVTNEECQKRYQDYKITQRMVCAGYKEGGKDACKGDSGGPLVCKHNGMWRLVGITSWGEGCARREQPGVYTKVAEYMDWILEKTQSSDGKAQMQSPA
T1 sequence (P03952 20-390 partner limits assumed): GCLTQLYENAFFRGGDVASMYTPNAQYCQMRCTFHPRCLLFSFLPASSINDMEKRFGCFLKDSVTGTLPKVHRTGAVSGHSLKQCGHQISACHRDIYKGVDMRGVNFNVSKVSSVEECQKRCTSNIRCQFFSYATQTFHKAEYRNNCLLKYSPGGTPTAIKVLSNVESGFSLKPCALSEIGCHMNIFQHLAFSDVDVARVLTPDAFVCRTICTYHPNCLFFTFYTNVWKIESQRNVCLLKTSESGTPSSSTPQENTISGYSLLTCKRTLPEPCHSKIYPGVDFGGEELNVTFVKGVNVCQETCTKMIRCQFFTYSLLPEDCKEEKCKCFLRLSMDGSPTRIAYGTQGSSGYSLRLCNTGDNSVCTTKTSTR

On to `N/C(=N\O)c1ccc(CNC(=O)c2cnn(Cc3ccc(CC4CC4)cc3)c2)cc1` [Compound 348, (Z)-1-(4-(cyclopropylmethyl)benzyl)-N-(4-(N'-hydroxycarbamoyl)benzyl)-1H-pyrazole-4-carboxamide], for which, under setting [1], half-maximal inhibition (IC50) was put at 3.75 nM.
Regarding `COc1ccc(F)c(CNC(=O)c2cn(Cc3ccc(Cn4cc(F)ccc4=O)cc3)nc2COCCN2CCCC2)c1F` [Compound 231], the IC50 under setting [2] was 3.66 nM.
The same measure, in the same setting: next, `CCc1cc(N2CC3C(C2)C3(F)F)ccc1Cn1cc(C(=O)NCc2cc3ccncc3[nH]2)c(C(F)(F)F)n1` (stereo not shown) [Compound 199]: 19.8 nM; `COCc1nn(Cc2ccc(Cn3c(=O)sc4ccccc43)cc2)cc1C(=O)NCc1nccc(OC)c1F` [Compound 140]: 78 nM.
On the same count and under the same terms, next, `COc1ccnc(CNC(=O)c2cn(Cc3ccc(Cn4ccccc4=O)cc3)nc2COCCN(C)C)c1F` [Compound 191]: 16.3 nM; `Cc1cc(N)nc(C)c1CNC(=O)c1nc(Cc2ccc(Cn3ccccc3=O)cc2)nn1C` [Compound 29]: > 1000 nM.
In the case of `COc1ccc(F)c(CNC(=O)c2cn(Cc3ccc(Cn4ccccc4=O)cc3)nc2NC2(C)COC2)c1F` [Compound 300], the IC50 under setting [2] was found to be 1.94 nM.
Same read-out and setting: next, `COCc1nn(Cc2ccc(-n3ccccc3=O)cc2)cc1C(=O)NCc1nccc(OC)c1F` [Compound 92]: > 100 nM.
`COc1ccnc(CNC(=O)c2cn(Cc3ccc(Cn4ccccc4=O)cc3)nc2-c2cnccn2)c1F` [Compound 301]: the IC50 under setting [2] came out at 24.9 nM.
Regarding `COc1ccnc(CNC(=O)c2cn(Cc3ccc(Cn4ccccc4=O)cc3)nc2COCC2(F)COC2)c1F` [Compound 235, N-((3-fluoro-4-methoxypyridin-2-yl)methyl)-3-((3-fluorooxetan-3-yl)methoxy)methyl], under setting [2], the 50% inhibitory concentration (IC50) turned out to be 3.33 nM.
Same read-out and setting: next, `O=C(NCc1nccc(C2CC2)c1F)c1cn(Cc2ccc(Cn3ccccc3=O)cc2)nc1N1CC(F)(F)C1` [Compound 272]: 42 nM.
On the same count and under the same terms, next, `COCc1nn(Cc2ccc(Cn3ccc4ncccc43)cc2)cc1C(=O)NCc1nccc(OC)c1F` [Compound 98]: 245 nM; `Cc1cc(N)nc(C)c1CNC(=O)c1cnn(Cc2ccc(CC3CC3)cc2)c1` [Compound 280]: 2.64 nM; `COc1ccnc(CNC(=O)c2cn(Cc3ccc(Cn4ccccc4=O)cc3)nc2N2CC(OC(C)C)C2)c1F` [Compound 307]: 4.57 nM.
Turning to `COc1ccc(F)c(CNC(=O)c2cn(Cc3ccc(Cn4cc(F)ccc4=O)cc3)nc2COCCN(C)C)c1F` [Compound 219], the IC50 under setting [2] is 4.98 nM.
On to `COCc1nn(Cc2ccc(CN3CCCCCC3)cc2)cc1C(=O)NCc1nccc(OC)c1F` [Compound 102], for which, under setting [2], the IC50 is > 100 nM.
On the same count and under the same terms, next, `COCc1nn(Cc2ccc(N3CC4C(C3)C4(F)F)cc2C#N)cc1C(=O)NCc1cc2cnccc2[nH]1` (stereo not shown) [Compound 86]: 21.2 nM; `N=C(N)c1ccc(CNC(=O)c2cn(Cc3ccc(CC4CC4)cc3)nc2C(F)(F)F)c(F)c1` [Compound 275]: 56 nM.
On the same count and under the same terms, next, `COc1ccnc(CNC(=O)c2cn(Cc3ccc(Cn4cc(F)ccc4=O)cc3)nc2COCC2(C)COC2)c1F` [Compound 286]: 10.8 nM; `COc1ccc(F)c(CNC(=O)c2cn(Cc3ccc(Cn4cc(F)ccc4=O)c(F)c3)nc2C2CC(OC)C2)c1F` (stereo not shown) [Compound 227]: 9.15 nM.
`COCc1nn(Cc2ccc(Cn3ccccc3=O)cc2)cc1C(=O)NCc1[nH]c2cnccc2c1Cl` [Compound 136]: the IC50 under setting [2] is 36.2 nM.
`COCc1nn(Cc2ccc(Cn3ccccc3=O)cc2)cc1C(=O)NCc1nccc(SC)c1F` [Compound 132] came in with an IC50 under setting [1] of 7.29 nM.
Take `CN(C)c1ccnc(CNC(=O)c2cn(Cc3ccc(CC4CC4)cc3)nc2C2COC2)c1F` [Compound 334]: the IC50 under setting [2] was 421 nM.
On the same count and under the same terms, next, `COCC1(F)CN(Cc2nn(Cc3ccc(Cn4cc(F)ccc4=O)cc3)cc2C(=O)NCc2c(F)ccc(OC)c2F)C1` [Compound 220]: 12 nM; `COCc1nn(Cc2ccc(CC3CC3)cc2)cc1C(=O)NCc1nccc(OC)c1F` [Compound 91, 1-(4-(cyclopropylmethyl)benzyl)-N-((3-fluoro-4-methoxypyridin-2-yl)methyl)-3-(methoxymethyl)-1H-pyrazole-4-carboxamide]: > 100 nM; `Cc1cn2cncc2c(C)c1CNC(=O)c1cn(Cc2ccc(N3CC4C(C3)C4(F)F)cc2C#N)nc1C(F)(F)F` (stereo not shown) [Compound 200]: 5.66 nM.
Still for that read-out and setting: next, `COc1ccnc(CNC(=O)c2cn(Cc3ccc(Cn4ccccc4=O)cc3)nc2COCC(=O)N(C)C)c1F` [Compound 164]: 26.3 nM; `O=C(NCc1ccc2ccncc2c1)c1cnn(Cc2ccc(Cn3ccccc3=O)cc2)c1` [Compound 197]: 164 nM.
The same measure, in the same setting: next, `COc1ccnc(CNC(=O)c2cn(Cc3ccc(Cn4ccccc4=O)cc3)nc2CN2C(=O)CCCC2=O)c1F` [Compound 308]: 3.49 nM; `CCn1c(CNC(=O)c2cn(Cc3ccc(Cn4ccccc4=O)cc3)nc2COC)cc2cnccc21` [Compound 176]: 18 nM.
As for `COc1ccc(C#N)c(CNC(=O)c2cnn(Cc3ccc(Cn4ccccc4=O)cc3)c2)c1C` [Compound 189], under setting [2], the half-inhibitory concentration (IC50) is 180 nM.
Still for that read-out and setting: next, `CC(C)CNc1ccnc(CNC(=O)c2cn(Cc3ccc(Cn4ccccc4=O)cc3)nc2N2CC(F)(F)C2)c1F` [Compound 279]: > 1000 nM; `O=C(NCc1nccc(NC2COC2)c1F)c1cn(Cc2ccc(Cn3ccccc3=O)cc2)nc1C1COC1` [Compound 331]: > 1000 nM.
`C#Cc1nn(Cc2ccc(Cn3ccccc3=O)cc2)cc1C(=O)NCc1nccc(OC)c1F` [Compound 85]: the IC50 under setting [2] came to 58.7 nM.
The same measure, in the same setting: next, `Cc1cc2ncnn2c(C)c1CNC(=O)c1cn(Cc2ccc(Cn3ccccc3=O)cc2)nc1C(F)(F)F` [Compound 206]: 318 nM; `Cn1ccc2c(CNC(=O)c3cn(Cc4ccc(Cn5ccccc5=O)cc4)nc3C3COC3)nccc21` [Compound 336]: 13.9 nM; `Cc1cc(Cl)nc(C)c1CNC(=O)c1ncn(Cc2ccc(Cn3ccccc3=O)cc2)n1` [Compound 100]: > 100 nM.
The same measure, in the same setting: next, `O=C(NCc1nccc(C2CC2)c1F)c1cn(Cc2ccc(Cn3ccccc3=O)cc2)nc1C1COC1` [Compound 339]: 31.6 nM; `COc1ccc(F)c(COC(=O)c2cn(Cc3ccc(Cn4cc(F)ccc4=O)cc3)nc2NC2(C)COC2)c1F` [Compound 237]: 2.78 nM.
Still for that read-out and setting: next, `N=C(N)c1ccc(CNC(=O)c2cn(Cc3ccc(Oc4ccccc4)cc3)nc2C(F)(F)F)cc1` [Compound 134]: 4.47 nM.
In the case of `Nc1nnc(CNC(=O)c2cnn(Cc3ccc(Cn4ccccc4=O)cc3)c2)s1` [Compound 30], the half-maximal inhibitory concentration (IC50) under setting [2] is > 1000 nM.
As to `COc1ccc(F)c(CNC(=O)c2cn(Cc3ccc(Cn4ccccc4=O)cc3)nc2N2CC(F)(F)C2)c1F` [Compound 233], the IC50 under setting [2] stood at 9.73 nM.
Still for that read-out and setting: next, `COc1ccnc(CNC(=O)c2cn(Cc3ccc(Cn4ccccc4=O)cc3)nc2COCC(C)(C)OC)c1F` [Compound 299]: 11.2 nM; `CCn1cnc2c1CC[C@@H]2NC(=O)c1cn(Cc2ccc(Cn3ccccc3=O)cc2)nc1COC` [Compound 131]: 27.9 nM; `CN(C)c1ccnc(CNC(=O)c2cn(Cc3ccc(Cn4ccccc4=O)cc3)nc2N2CC3(C2)OCC3(C)C)c1F` [Compound 313]: 3.24 nM.
Still for that read-out and setting: next, `CNc1ccnc(CNC(=O)c2cn(Cc3ccc(CC4CC4)cc3)nc2C2COC2)c1F` [Compound 344]: 237 nM; `Cn1ncc2cnc(CNC(=O)c3cnn(Cc4ccc(Cn5ccccc5=O)cc4)c3)c(F)c21` [Compound 376]: 67 nM.
The same measure, in the same setting: next, `COCc1nn(Cc2ccc(N3CC4C(C3)C4(F)F)cc2C#N)cc1C(=O)NCc1nc2c(s1)CNCC2` (stereo not shown) [Compound 129]: 406 nM; `COc1ccnc(CNC(=O)c2cn(Cc3ccc(Cn4ccccc4=O)cc3)nc2C2CC(OC)C2)c1F` (stereo not shown) [Compound 208]: 7.99 nM.
In the case of `COCc1nn(Cc2ccc(N3CCOCC3=O)cc2)cc1C(=O)NCc1cn2c(n1)CNCC2` [Compound 112], the IC50 under setting [2] is > 100 nM.
As to `N#Cc1cc(N2CC3C(C2)C3(F)F)ccc1Cn1cnc(C(=O)NC2CCc3cc(N)ncc32)n1` (single isomer, unassigned) [Compound 53], the IC50 under setting [2] is > 100 nM.
As for `COCc1nn(Cc2ccc(N3CC4C(C3)C4(F)F)cc2C#N)cc1C(=O)NCc1c(C)cn2cncc2c1C` (stereo not shown) [Compound 188], the IC50 under setting [2] was determined as 2.74 nM.
As for `O=C(NCc1nccc(NCC2CC2)c1F)c1cn(Cc2ccc(Cn3ccccc3=O)cc2)nc1C1COC1` [Compound 276], the 50% inhibitory concentration (IC50) under setting [2] was > 1000 nM.
On the same count and under the same terms, next, `Cc1[nH]c(C(=O)NCc2cc3cnccc3[nH]2)c(C)c1Cc1ccc(Cn2ccccc2=O)cc1` [Compound 148]: 347 nM; `Cc1cc(N)nc(C)c1CNC(=O)c1ncn(Cc2ccc(-n3ccccc3=O)cc2)n1` [Compound 63]: 16.7 nM.
The same measure, in the same setting: next, `CN(C)c1ccnc(CNC(=O)c2cn(Cc3ccc(Cn4ccccc4=O)cc3)nc2C2CC(F)(F)C2)c1F` [Compound 342]: 6.29 nM; `COc1ccnc(CNC(=O)c2cc(Cc3ccc(Cn4ccccc4=O)cc3)cn2C)c1F` [Compound 88]: 20.1 nM; `COCc1nn(Cc2ccc(-n3ccccc3=O)cc2)cc1C(=O)NCc1cc2ccncc2[nH]1` [Compound 97]: 503 nM.
Same read-out and setting: next, `COCc1nn(Cc2ccc(CN3CCCCC3=O)cc2)cc1C(=O)NCc1nccc(OC)c1F` [Compound 77]: 62.9 nM; `COc1ccc(F)c(CNC(=O)c2cn(Cc3ccc(Cn4cc(F)ccc4=O)cc3)nc2N[C@H]2CCOC2)c1F` [Compound 298]: 2.79 nM.
As for `COCc1nn(Cc2ccc(Oc3ccccc3)cc2)cc1C(=O)NCc1cc2ccncc2[nH]1` [Compound 185], under setting [2], the IC50 is 84.5 nM.
